# Measurements reported in the Deep4Chem optical property database.
# “And” between values parts separate entries of the source, which are not always exact repeats. Identical values can stand only once.
# Assay: solvent given as SMILES
smiles,measurement,setting,value
CN(C)c1c2ccccc2cc2ccccc12,absorption maximum,in C1CCCCC1,386 nm
same,absorption maximum,in C1CCOC1,386 nm
same,absorption maximum,in C1COCCO1,387 nm
same,absorption maximum,in CC#N,386 nm
same,absorption maximum,in CCO,385 nm
same,absorption maximum,in CN(C)C=O,388 nm
same,absorption maximum,in CO,384 nm
same,absorption maximum,in COCCOC,386 nm
same,absorption maximum,in CS(C)=O,390 nm
same,absorption maximum,in O,385 nm
same,absorption maximum,in OCC(O)CO,393 nm
same,absorption maximum,in OCCO,388 nm
CCCCC1=Cc2c3ccc4cccc5ccc(c6cc(-c7ccccc7)n(c26)P1(=O)c1ccccc1)c3c45 (stereo not given),absorption maximum,in C1CCCCC1,430 nm
same,absorption maximum,in C1CCOC1,430 nm
same,absorption maximum,in C1COCCO1,430 nm
same,absorption maximum,in CC#N,426 nm
same,absorption maximum,in CC(C)=O,427 nm
same,absorption maximum,in CO,426 nm
same,absorption maximum,in Cc1ccccc1,433 nm
same,absorption maximum,in ClC(Cl)Cl,431 nm
same,absorption maximum,in ClCCl,430 nm
CC1=NN(c2ccccc2)C(=O)/C1=C/c1cn(-c2ccccc2)nc1-c1ccccc1,absorption maximum,in C1CCOC1,365 nm
same,absorption maximum,in C1COCCO1,366 nm
same,absorption maximum,in CCO,367 nm
same,absorption maximum,in CCOC(C)=O,364 nm
same,absorption maximum,in CN(C)C=O,367 nm
same,absorption maximum,in CO,364 nm
same,absorption maximum,in CS(C)=O,370 nm
same,absorption maximum,in Cc1ccccc1,369 nm
same,absorption maximum,in ClC(Cl)Cl,368 nm
same,absorption maximum,in ClCCl,368 nm
COc1cccc(/C=C/C(=O)c2c(O)cc(C)oc2=O)c1,absorption maximum,in CC#N,373 nm
same,absorption maximum,in ClCCl,377 nm
Cc1ccc(-c2cc(-c3ccccc3Cl)c3c(N)nc(N4CCCC4)c(C#N)c3n2)cc1,absorption maximum,in CC#N,414 nm
same,absorption maximum,in CC(C)=O,422 nm
same,absorption maximum,in CC(C)O,414 nm
same,absorption maximum,in CO,416 nm
same,absorption maximum,in ClC(Cl)Cl,418 nm
same,absorption maximum,in ClCCl,422 nm
same,absorption maximum,in c1ccccc1,426 nm
CC/[NH+]=c1\cc2oc3cc(NCCC(=O)NC(C(=O)OC)c4ccccc4)c4ccccc4c3nc-2cc1C (stereo not given),absorption maximum,in CCO,580 nm
same,absorption maximum,in O,590 nm
CC[n+]1c(C=C2C(=O)C(C=C3N(C)c4ccccc4C3(C)C)=C2[O-])[se]c2ccccc21,absorption maximum,in CO,643 nm
same,absorption maximum,in ClC(Cl)Cl,657 nm
same,absorption maximum,in ClCCl,658 nm
Nc1ccc2c(C(F)(F)F)cc(=O)oc2c1,absorption maximum,in C1CCC2CCCCC2C1,349 nm
same,absorption maximum,in C1CCCCC1,348 nm
same,absorption maximum,in C1COCCO1,364 nm
same,absorption maximum,in CC1CCCCC1,348 nm
same,absorption maximum,in CC#N,365 nm and 367 nm
same,absorption maximum,in CC(C)=O,371 nm
same,absorption maximum,in CC(C)O,384 nm
same,absorption maximum,in CCC(C)CC,347 nm
same,absorption maximum,in CCCC(C)C,347 nm
same,absorption maximum,in CCCCCC,347 nm
same,absorption maximum,in CCCCCCCCO,383 nm
same,absorption maximum,in CCCCCCO,384 nm
same,absorption maximum,in CCCCO,383 nm
same,absorption maximum,in CCO,383 nm
same,absorption maximum,in CCOC(C)=O,368 nm
same,absorption maximum,in CN(C)C=O,378 nm
same,absorption maximum,in CO,378 nm
same,absorption maximum,in CS(C)=O,386 nm
CCCCc1cc(-c2cccc(COC)c2)oc1-c1cccc(-c2oc(-c3cccc(COC)c3)cc2CCCC)c1,absorption maximum,in ClC(Cl)Cl,334 nm
Cc1cc(N(C)C)ccc1C1=C2C=CC(=[N+](C)C)C=C2[Si](C)(C)c2cc(N(C)C)ccc21,absorption maximum,in O,646 nm
CC(C)(C)C1Nc2ccccc2C(=O)N1Cc1ccccc1 (stereo not given),absorption maximum,in CC#N,344 nm
same,absorption maximum,in CCCCCCCCCCCCCCCC,333 nm
same,absorption maximum,in CO,353 nm
same,absorption maximum,in ClC(Cl)Cl,341 nm
same,absorption maximum,in c1ccccc1,339 nm
